Four compounds from US20230103631A1, “PEPTIDES AS SELECTIVE GIP RECEPTOR AGONISTS” (Sanofi, priority 2020, published 2023) can be followed below.

*1 amine or outer side, *2 acyl side, *3 side chain or, on linkers, in order; H or OH if unused. Where a SMILES comes first, the peptide text is derived from it. Side-chain parts run from the residue outwards. [ ]: non-standard residue; d: D form. The star is where a group is joined. C20 diacid = O=C(O)CCCCCCCCCCCCCCCCCCC(=O)*; C18 diacid = O=C(O)CCCCCCCCCCCCCCCCC(=O)*; γGlu = O=C(O)[C@H](CCC(=O)[*:2])N[*:1]; AEEA = NCCOCCOCC(=O)O; Aib = CC(C)(N)C(=O)O; Sar = CNCC(=O)O A value given as a limit tells only on which side of the number the result lay.

One data set can be described thus: physchem. The format is physicochemical. The conditions noted are these: for Soluble amount: 24 h, pH 7.4; for solubility at 24 h: pH 7.4, Soluble amount. Here is the method:
Prior to the solubility measurement of a peptide batch, its purity was determined through UHPLC/MS. […] Therefore, solutions from solid samples were prepared in a buffer system with a concentration of 10 mg/ml compound based on the previously determined % purity: Solubility buffer system A) 100 mM phosphate buffer pH 7.4 […] Solubility buffer system C) 100 mM phosphate buffer pH 7.4, 2.7 mg/ml m-cresol UHPLC-UV was performed after 1 h of gentle agitation and storage at 5° C. over night (24 h) from the supernatant, which was obtained after 15 min of centrifugation at 2500 RCF (relative centrifugal acceleration). […] The different UV extinction coefficients of sample and reference peptide were calculated based on the different amino acid sequences and considered in the concentration calculation. The analytical method used was Analytical UHPLC Method A. Peptide samples were prepared in solubility buffer system A or C and solubility was assessed as described in Methods.

In data set [1] the target is human GLP-1 receptor (hGLP-1R) (Homo sapiens, UniProt P43220). Nature of the data set: cAMP HTRF assay, HEK-293 cell line over-expressing human GLP-1 receptor. Format: cell-based. Conditions: HEK-293, cAMP, 0% HSA. The procedure:
Each vial contained 1.8 ml cells. The vials were slowly frozen to −80° C. in isopropanol, and then transferred in liquid nitrogen for storage.
Prior to their use, frozen cells were thawed quickly at 37° C. and washed (5 min at 900 rpm) with 20 ml cell buffer (1× HBSS; 20 mM HEPES, plus 0.1% HSA if indicated in Example conditions).
For measurement of cAMP generation, 5 μl cells (final 5000 cells/well) and 5 μl of test compound were added to a 384-well plate, followed by incubation for 30 min at room temperature.
The cAMP generated was determined using a kit from Cisbio Corp. based on HTRF (Homogenous Time Resolved Fluorescence). The cAMP assay was performed according to manufacturer's instructions (Cisbio).
A general note: TR-FRET usually uses a lanthanide donor and a delayed reading to cut background.

The next data set has as its system C57Bl/6 mice. Nature of the data set: Intraperitoneal glucose tolerance test (ipGTT) after s.c. treatment. Conditions: 10 nmol/kg s.c. 6 h before i.p. glucose load, mean ± SEM. Format: in vivo. Here is the method: Healthy, normoglycemic male C57Bl/6NCrl mice were ordered in an age of 9-10 weeks with an approximate body weight (BW) of 24-26 g at Charles River Laboratories Deutschland GmbH, 97633 Sulzfeld, Germany. Mice were shipped grouped housed (N=4 per cage), acclimatized for one week and remained grouped housed throughout the entire study. Mice were housed under vivarium conditions that included a 12 h light/dark cycle (light phase 06:00 AM-06:00 PM), mean room temperature of 22±2° C. and a relative mean humidity of 55±10%. All animals had free access to food (Ssniff R/M-H diet) and water prior to study start.
The primary objective of the study was to investigate the compound-induced lowering of the blood glucose excursion and improvement of glucose tolerance in a mouse ipGTT setting and therefore the primary parameters included blood glucose, delta blood glucose (normalized to the time point just prior to the i.p. glucose challenge, t=0 h) and their respective calculated area under curve (AUC) values. The study was performed as an acute, single dosing study with 6 groups and the male animals were randomly divided to groups of 7-8 mice per group. Dose-dependent pharmacodynamic blood glucose lowering efficacy of the GIPR agonist was analyzed with s.c. injections 6 h before the i.p. glucose load in the dose range from 3 up to 100 nmol/kg and compared to the vehicle group as well as the semaglutide positive control at a dose of 10 nmol/kg.
In more detail, mice were fed overnight and on the following morning brought to the lab with food removed but ad libitum access to water. Blood samplings (5 μl) were performed at: −6.5, −0.5, 0, 0.17, 0.5, 1, 1.5, 2 and 3 h before and after the glucose bolus of 1 g glucose per kg BW i.p. given at time point t=0 h. On time point t=0.17 h an additional K-EDTA plasma sample from 60-80 μl blood was taken for plasma insulin analysis. Blood was withdrawn from the tip of the tail. The GIPR agonist and semaglutide were dissolved in 10 mM phosphate buffer pH 7.4 with 2.3% glycerol and 0.01% polysorbat 20 (vehicle) and s.c. treatment was performed −6 h before the glucose load (t=0 h) using an injection volume of 5 ml/kg. The injection solutions were freshly prepared prior to the experiment using sterile filtered vehicle solution.
Blood glucose was determined enzymatically (Gluco-quant® Glucose/HK kit on Roche/Hitachi 912). Plasma insulin was determined using a mouse/rat insulin sandwich immunoassay kit from Meso Scale Discovery.
All data were collected using Microsoft Excel. None of the data were collected online. The results are expressed as means±standard error of the mean (SEM). As primary study parameters, blood glucose, baseline (time point t=0 h) subtracted delta blood glucose and their respective calculated area under curve (AUC) values were determined. The respective AUC data were calculated using the trapezoid rule for the time period t=0 h until t=2 h.
The statistical analysis of the ipGTT blood glucose excursion data response following subcutaneous compound or vehicle treatment was performed on the calculated AUC values of blood glucose raw data as well as the calculated AUC values for baseline subtracted delta blood glucose data. In a first step the Levene's test was used to test for equality of variances between groups. Where Levene's test was significant (p s 0.05), a rank transformation of the calculated AUC data was applied to stabilize the variances before ANOVA analysis was conducted. Where Levene's test was not significant (p>0.05) ANOVA was conducted without prior rank transformation. In a second step a One-way ANOVA analysis for factor treatment followed by Dunnett's multiple comparisons test vs. vehicle group was used to test for statistical differences. Different levels of significance were defined as *=p<0.05, **=p<0.001, ***=p<0.0001. All analyses were performed using SAS (version 9.4) under Linux via the interface software EverSt@t V6.1. […]

Chain of human GLP-1 receptor (hGLP-1R) (P43220 24-463): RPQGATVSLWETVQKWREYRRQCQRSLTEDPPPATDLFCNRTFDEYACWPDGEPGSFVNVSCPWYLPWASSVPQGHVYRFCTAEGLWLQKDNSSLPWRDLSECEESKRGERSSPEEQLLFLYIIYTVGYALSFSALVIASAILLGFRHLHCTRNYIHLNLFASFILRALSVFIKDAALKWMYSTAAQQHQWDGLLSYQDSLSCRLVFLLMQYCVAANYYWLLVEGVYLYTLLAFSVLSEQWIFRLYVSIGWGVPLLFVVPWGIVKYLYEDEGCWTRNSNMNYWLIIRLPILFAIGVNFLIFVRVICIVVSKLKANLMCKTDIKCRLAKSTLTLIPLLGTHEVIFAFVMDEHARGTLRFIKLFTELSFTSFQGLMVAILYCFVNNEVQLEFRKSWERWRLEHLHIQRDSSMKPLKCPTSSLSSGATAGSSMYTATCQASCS

By solubility is commonly meant the concentration that dissolves in the medium under given conditions. A word on the EC50: it is the concentration needed to bring the measured effect to its halfway point. A lower EC50 goes with an effect from little substance. In “physchem”, `CC[C@H](C)[C@H](NC(=O)[C@H](Cc1ccccc1)NC(=O)[C@H](CCC(=O)O)NC(=O)[C@H](CCC(=O)O)NC(=O)[C@H](CCC(N)=O)NC(=O)[C@H](Cc1c[nH]cn1)NC(=O)[C@@H](NC(=O)[C@H](CCCNC(=N)N)NC(=O)[C@H](CC(=O)O)NC(=O)[C@H](CCCCNC(=O)COCCOCCNC(=O)COCCOCCNC(=O)CC[C@H](NC(=O)CC[C@H](NC(=O)CCCCCCCCCCCCCCCCCCC(=O)O)C(=O)O)C(=O)O)NC(=O)C(C)(C)NC(=O)[C@@H](NC(=O)[C@H](CO)NC(=O)[C@H](CC(C)C)NC(=O)[C@H](CC(=O)O)NC(=O)[C@H](CO)NC(=O)[C@@H](NC(=O)[C@H](Cc1ccccc1)NC(=O)[C@@H](NC(=O)CNC(=O)[C@H](CCC(=O)O)NC(=O)C(C)(C)NC(=O)[C@@H](N)Cc1ccc(O)cc1)[C@@H](C)O)[C@@H](C)CC)[C@@H](C)CC)[C@@H](C)CC)C(=O)N[C@@H](CCC(=O)O)C(=O)N[C@@H](Cc1c[nH]c2ccccc12)C(=O)N[C@@H](CC(C)C)C(=O)N[C@@H](CC(C)C)C(=O)N[C@@H](C)C(=O)N[C@@H](CCC(N)=O)C(=O)NCC(=O)N1CCC[C@H]1C(=O)N[C@@H](CO)C(=O)N[C@@H](CO)C(=O)NCC(=O)N[C@@H](C)C(=O)N1CCC[C@H]1C(=O)N1CCC[C@H]1C(=O)N1CCC[C@H]1C(=O)N[C@@H](CO)C(N)=O` [SEQ ID NO: 15, H2N-Y-Aib-E-G-T-F-I-S-D-I-S-I-Aib-K[{AEEA}2-{gGlu}2-C20OH]-DRIHQEEFIEWILAQGPSSGAPPPS-NH2] (H-Y[Aib]EGTFISDLSI[Aib]K([AEEA-AEEA-γGlu-γGlu-C20 diacid])DRIHQEEFIEWLLAQGPSSGAPPPS-NH2) came in with a Soluble amount above 9.2 mg/mL and a solubility at 24 h above 10.3 mg/mL. This compound gave an EC50 in data set [1] above 0.01 µM.
In the same order, the values of `CC[C@H](C)[C@H](NC(=O)[C@H](Cc1ccccc1)NC(=O)[C@H](CCC(=O)O)NC(=O)[C@H](CCC(=O)O)NC(=O)[C@H](CCC(N)=O)NC(=O)[C@H](Cc1c[nH]cn1)NC(=O)[C@@H](NC(=O)[C@H](CCCNC(=N)N)NC(=O)[C@H](CC(=O)O)NC(=O)[C@H](CCCCNC(=O)CNC(=O)CNC(=O)CNC(=O)CC[C@H](NC(=O)CCCCCCCCCCCCCCCCC(=O)O)C(=O)O)NC(=O)C(C)(C)NC(=O)[C@@H](NC(=O)[C@H](CO)NC(=O)[C@H](CC(C)C)NC(=O)[C@H](CC(=O)O)NC(=O)[C@H](CO)NC(=O)[C@@H](NC(=O)[C@H](Cc1ccccc1)NC(=O)[C@@H](NC(=O)CNC(=O)[C@H](CCC(=O)O)NC(=O)C(C)(C)NC(=O)[C@@H](N)Cc1ccc(O)cc1)[C@@H](C)O)[C@@H](C)CC)[C@@H](C)CC)[C@@H](C)CC)C(=O)N[C@@H](CCC(=O)O)C(=O)N[C@@H](Cc1c[nH]c2ccccc12)C(=O)N[C@@H](CC(C)C)C(=O)N[C@@H](CC(C)C)C(=O)N[C@@H](C)C(=O)N[C@@H](CCC(N)=O)C(=O)NCC(=O)N1CCC[C@H]1C(=O)N[C@@H](CO)C(=O)N[C@@H](CO)C(=O)NCC(=O)N[C@@H](C)C(=O)N1CCC[C@H]1C(=O)N1CCC[C@H]1C(=O)N1CCC[C@H]1C(=O)N[C@@H](CO)C(N)=O` [SEQ ID NO: 16, H2N-Y-Aib-E-G-T-F-I-S-D-I-S-I-Aib-K[{Gly}3-gGlu-C18OH]-DRIHQEEFIEWILAQGPSSGAPPPS-NH2] (H-Y[Aib]EGTFISDLSI[Aib]K([Gly-Gly-Gly-γGlu-C18 diacid])DRIHQEEFIEWLLAQGPSSGAPPPS-NH2) are above 9.9 mg/mL, above 10 mg/mL and above 0.01 µM.
In the same order, the values of `CC[C@H](C)[C@H](NC(=O)[C@H](Cc1ccccc1)NC(=O)[C@H](CCC(=O)O)NC(=O)[C@H](CCC(=O)O)NC(=O)[C@H](CCC(N)=O)NC(=O)[C@H](Cc1c[nH]cn1)NC(=O)[C@@H](NC(=O)[C@H](CCCNC(=N)N)NC(=O)[C@H](CC(=O)O)NC(=O)[C@H](CCCCNC(=O)CN(C)C(=O)CN(C)C(=O)CN(C)C(=O)CC[C@H](NC(=O)CCCCCCCCCCCCCCCCC(=O)O)C(=O)O)NC(=O)C(C)(C)NC(=O)[C@@H](NC(=O)[C@H](CO)NC(=O)[C@H](CC(C)C)NC(=O)[C@H](CC(=O)O)NC(=O)[C@H](CO)NC(=O)[C@@H](NC(=O)[C@H](Cc1ccccc1)NC(=O)[C@@H](NC(=O)CNC(=O)[C@H](CCC(=O)O)NC(=O)C(C)(C)NC(=O)[C@@H](N)Cc1ccc(O)cc1)[C@@H](C)O)[C@@H](C)CC)[C@@H](C)CC)[C@@H](C)CC)C(=O)N[C@@H](CCC(=O)O)C(=O)N[C@@H](Cc1c[nH]c2ccccc12)C(=O)N[C@@H](CC(C)C)C(=O)N[C@@H](CC(C)C)C(=O)N[C@@H](C)C(=O)N[C@@H](CCC(N)=O)C(=O)NCC(=O)N1CCC[C@H]1C(=O)N[C@@H](CO)C(=O)N[C@@H](CO)C(=O)NCC(=O)N[C@@H](C)C(=O)N1CCC[C@H]1C(=O)N1CCC[C@H]1C(=O)N1CCC[C@H]1C(=O)N[C@@H](CO)C(N)=O` [SEQ ID NO: 17, H2N-Y-Aib-E-G-T-F-I-S-D-I-S-I-Aib-K[{N-MeGly}3-gGlu-C18OH]-DRIHQEEFIEWILAQGPSSGAPPPS-NH2] (H-Y[Aib]EGTFISDLSI[Aib]K([Sar-Sar-Sar-γGlu-C18 diacid])DRIHQEEFIEWLLAQGPSSGAPPPS-NH2) are above 11.8 mg/mL, above 10.9 mg/mL and above 0.01 µM.
Take semaglutide [reference compound]: the “Incremental blood glucose concentration AUCi” value in the data set with C57Bl/6 mice (vehicle +4.93 ± 0.324) is recorded as “+1.15 ± 0.255 mmol/L* 0-2 h”. Moreover, the “Blood glucose concentration AUC” value in the data set on C57Bl/6 mice (vehicle +22.15 ± 0.662) is “+10.21 ± 0.503 mmol/L* 0-2 h”.
